The source of these data is US11999746B2, “Compounds” (GlaxoSmithKline Intellectual Property Development Limited, priority 2014, dated 2024).

Molecules are shown by their SMILES.

The target of experiment [1] is T1, recombinant human Lp-PLA2 (Homo sapiens, UniProt Q13093).
T1 sequence (Q13093 22-441): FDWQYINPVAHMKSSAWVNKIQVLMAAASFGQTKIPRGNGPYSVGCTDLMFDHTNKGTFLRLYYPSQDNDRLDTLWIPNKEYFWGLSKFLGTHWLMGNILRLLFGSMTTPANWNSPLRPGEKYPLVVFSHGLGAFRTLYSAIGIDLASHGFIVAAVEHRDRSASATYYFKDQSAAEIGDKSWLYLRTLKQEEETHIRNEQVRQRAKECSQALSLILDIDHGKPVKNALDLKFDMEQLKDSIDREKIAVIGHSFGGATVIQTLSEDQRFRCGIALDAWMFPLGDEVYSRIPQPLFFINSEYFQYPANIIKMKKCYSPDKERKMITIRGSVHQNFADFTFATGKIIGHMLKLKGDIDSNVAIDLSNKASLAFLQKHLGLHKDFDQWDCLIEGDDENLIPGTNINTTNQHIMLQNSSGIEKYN
The experiment in a line: (1a) PED6 assay, recombinant human Lp-PLA2 (rhLp-PLA2). The class given is biochemical. As to conditions: Examples 1-167 and 413-430 were tested here, one experiment or average of multiple experiments, read-out: rhLp-PLA2 (pIC50) (converted). The procedure, abridged:
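PED6 (2 μM final after 1:1 addition of 4 μM stock) cleavage by rhLp-PLA2 (4 nM working solution) in 50 mM HEPES pH 7.4, 150 mM NaCl, 1 mM CHAPS; compounds preincubated with enzyme 30 minutes, reaction 20 min at room temperature. Fluorescence at ex 480/em 540; pIC50 from curve fit.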

The next experiment has as its target T2, Lp-PLA2 in human plasma (Homo sapiens, UniProt Q13093).
T2 construct: from tissue; host or cells: pooled human plasma
T2 sequence (Q13093 22-441): T1 sequence (Q13093 22-441)
The experiment in a line: (3a) Lp-PLA2 human plasma Thio-PAF assay. Type of experiment: biochemical. The note with it: (3a) Thio-PAF assay, pooled human plasma; Examples 1-265 and 413-430 were tested here; read-out: pIC50 in the Lp-PLA2 human plasma assay (converted). The procedure, abridged:
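Endogenous Lp-PLA2 activity in frozen pooled human plasma measured as thiol release from 2-thio-PAF, detected by CPM fluorescence (ex 380/em 485). Compound preincubation 30 min; 2-min reaction in HEPES pH 7.4 buffer with NEM, stopped with 5% TFA, read 40 min later at room temperature; values as pIC50.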

With `O=c1nc(OCc2cc(F)c(Oc3cnn(C(F)(F)F)c3)c(F)c2)cc2n1C[C@@H]1COCN21` [Example E154, (R)-6-((3,5-difluoro-4-((1-(trifluoromethyl)-1H-pyrazol-4-yl)oxy)benzyl)oxy)-10,10a-dihydro-1H-oxazolo[3′,4′:3,4]imidazo[1,2-c]pyrimidin-8(3H)-one], the IC50 in experiment [1] was at most 1 nM; on Lp-PLA2 in human plasma it was at most 100 nM.

As for `CN1c2cc(OCc3cc(F)c(F)c(F)c3)nc(=O)n2CC12CCCC2` [Example 414, 1′-methyl-7′-((3,4,5-trifluorobenzyl)oxy)-1′H-spiro[cyclopentane-1,2′-imidazo[1,2-c]pyrimidin]-5′(3′H)-one], the IC50 (in experiment [1]; at Lp-PLA2 in human plasma) was at most 100 nM in each case.

Turning to `O=c1nc(OCc2cc(F)c(OC3(CCF)CC3)c(F)c2)cc2n1C[C@@H]1CCOCN21` [Example E140, (S)-3-((3,5-difluoro-4-(1-(2-fluoroethyl)cyclopropoxy)benzyl)oxy)-8,9,9a,10-tetrahydropyrimido[6′,1′:2,3]imidazo[1,5-c][1,3]oxazin-1(6H)-one], the IC50 is at most 100 nM in experiment [1] and at most 10000 nM on Lp-PLA2 in human plasma.

In the case of `Cc1ncc(Oc2c(F)cc(COc3cc4n(c(=O)n3)C[C@H]3COCN43)cc2F)cn1` [Example E152, (S)-6-((3,5-difluoro-4-((2-methylpyrimidin-5-yl)oxy)benzyl)oxy)-10,10a-dihydro-1H-oxazolo[3′,4′:3,4]imidazo[1,2-c]pyrimidin-8(3H)-one], the IC50 (in experiment [1]; on Lp-PLA2 in human plasma) was at most 100 nM each time.

Turning to `CCCn1cc(Oc2c(F)cc(COc3cc4n(c(=O)n3)C[C@@H]3COCCN43)cc2F)cn1` [Example E122, (R)-7-((3,5-difluoro-4-((1-propyl-1H-pyrazol-4-yl)oxy)benzyl)oxy)-3,4,11,11atetrahydropyrimido[6′,1′:2,3]imidazo[5,1-c][1,4]oxazin-9(1H)-one], the figures for the IC50 (in experiment [1]; at Lp-PLA2 in human plasma) were at most 100 nM and at most 10000 nM, respectively.

Turning to `Cc1cc(Oc2c(F)cc(COc3cc4n(c(=O)n3)C[C@H]3COCN43)cc2F)ccn1` [Example E161, (S)-6-((3,5-difluoro-4-((2-methylpyridin-4-yl)oxy)benzyl)oxy)-10,10a-dihydro-1H-oxazolo[3′,4′:3,4]imidazo[1,2-c]pyrimidin-8(3H)-one], the IC50 in experiment [1] was at most 100 nM; at Lp-PLA2 in human plasma it was at most 10000 nM.

With `O=c1nc(OCc2cc(F)c(Oc3ccc(C(F)(F)F)nc3)c(F)c2)cc2n1CC1CCCN21` (stereo not shown) [Example E78, 3-((3,5-Difluoro-4-((6-(trifluoromethyl)pyridin-3-yl)oxy)benzyl)oxy)-7,8,8a,9-tetrahydro pyrrolo[1′,2′:3,4]imidazo[1,2-c]pyrimidin-1(6H)-one], the IC50 was at most 1 nM in experiment [1] and at most 100 nM at Lp-PLA2 in human plasma.

Turning to `O=c1nc(OCc2cc(F)c(Oc3cccc(C(F)(F)F)c3)c(F)c2)cc2n1C[C@@H]1CCCN21` [Example E83, (S)-3-((3,5-difluoro-4-(3-(trifluoromethyl)phenoxy)benzyl)oxy)-7,8,8a,9-tetrahydropyrrolo[1′,2′:3, 4]imidazo[1,2-c]pyrimidin-1(6H)-one], the IC50 in experiment [1] was at most 1 nM; on Lp-PLA2 in human plasma it was at most 100 nM.

As for `N#Cc1cccc(COc2cc3n(c(=O)n2)CC2CCCCN32)c1` (stereo not shown) [Example E6, 3-(((1-Oxo-6,7,8,9,9a,10-hexahydro-1H-pyrido[1′,2′:3,4]imidazo[1,2-c]pyrimidin-3-yl)oxy)methyl)benzonitrile], the IC50 in experiment [1] was at most 100 nM; at Lp-PLA2 in human plasma, at most 10000 nM.

Consider `CCCn1cc(Oc2c(F)cc(COc3cc4n(c(=O)n3)C[C@@H]3COCN43)cc2F)cn1` [Example E156, (R)-6-((3,5-difluoro-4-((1-propyl-1H-pyrazol-4-yl)oxy)benzyl)oxy)-10,10a-dihydro-1H-oxazolo[3′,4′:3,4]imidazo[1,2-c]pyrimidin-8(3H)-one], for which the IC50 in experiment [1] was at most 100 nM; at Lp-PLA2 in human plasma it was at most 10000 nM.

As to `O=c1nc(OCc2cc(F)c(OC3CCC(F)(F)C3)c(F)c2)cc2n1CC1CCCN21` (stereo not shown) [Example E94, 3-((4-((3,3-difluorocyclopentyl)oxy)-3,5-difluorobenzyl)oxy)-7,8,8a,9-tetrahydropyrrolo[1′,2′:3,4]imidazo[1,2-c]pyrimidin-1(6H)-one], the IC50 is at most 100 nM in experiment [1] and at most 10000 nM on Lp-PLA2 in human plasma.

In the case of `O=c1nc(OCc2cc(F)c(Oc3ccc(C(F)(F)F)nc3)c(F)c2)cc2n1CC1CCCCN21` (stereo not shown) [Example E39, 3-((3,5-Difluoro-4-((6-(trifluoromethyl)pyridin-3-yl)oxy)benzyl)oxy)-6,7,8,9,9a,10-hexahydro 1H-pyrido[1′,2′:3,4]imidazo[1,2-c]pyrimidin-1-one], the results for the IC50 (in experiment [1]; on Lp-PLA2 in human plasma) were at most 1 nM and at most 100 nM, respectively.

As to `N#Cc1cc(COc2cc3n(c(=O)n2)C[C@@H]2CCCN32)ccc1Oc1cc(F)cc(F)c1` [Example E88, (S)-2-(3,5-difluorophenoxy)-5-(((1-oxo-1,6,7,8,8a,9-hexahydropyrrolo[1′,2′:3,4]imidazo[1,2-c]pyrimidin-3-yl)oxy)methyl)benzonitrile], the IC50 in experiment [1] is at most 1 nM; on Lp-PLA2 in human plasma it was at most 10000 nM.

With `N#Cc1cc(COc2cc3n(c(=O)n2)CC2CCCCN32)ccc1Oc1ccc(Cl)c(F)c1` (stereo not shown) [Example E24, 2-(4-Chloro-3-fluorophenoxy)-5-(((1-oxo-6,7,8,9,9a,10-hexahydro-1H pyrido-[1′,2′:3,4]imidazo[1,2-c]pyrimidin-3-yl)oxy)methyl)benzonitrile], the figures for the IC50 (in experiment [1]; on Lp-PLA2 in human plasma) were at most 1 nM and at most 100 nM, respectively.

Regarding `O=c1nc(OCc2cc(F)c(Oc3ccnc(Cl)c3)c(F)c2)cc2n1CC1CCCCN21` (stereo not shown) [Example E26, 3-((4-((2-Chloropyridin-4-yl)oxy)-3,5-difluorobenzyl)oxy)-6,7,8,9,9a,10-hexahydro-1H-pyrido[1,2′:3,4]imidazo[1,2-c]pyrimidin-1-one], the results for the IC50 (in experiment [1]; on Lp-PLA2 in human plasma) were at most 1 nM and at most 100 nM, respectively.

As for `O=c1nc(OCc2cc(F)c(OC3CCC(F)(F)C3)c(F)c2)cc2n1C[C@@H]1CCCN21` (stereo partly drawn) [Example E95, (S)-3-((4-((3,3-difluorocyclopentyl)oxy)-3,5-difluorobenzyl)oxy)-7,8,8a,9-tetrahydropyrrolo[1′,2′:3,4]imidazo[1,2-c]pyrimidin-1(6H)-one], the values for the IC50 (in experiment [1]; on Lp-PLA2 in human plasma) were at most 100 nM and at most 10000 nM, respectively.

As to `O=c1nc(OCc2cc(F)c(Oc3ccnc(C(F)(F)F)c3)c(F)c2)cc2n1CC1COCCN21` (stereo not shown) [Example E107, 7-((3,5-Difluoro-4-((2-(trifluoromethyl)pyridin-4-yl)oxy)benzyl)oxy)-3,4, 11, 11a-tetra hydropyrimido[6′,1′:2,3]imidazo[5,1-c][1,4]oxazin-9(1H)-one], the values for the IC50 (in experiment [1]; at Lp-PLA2 in human plasma) were 0.0398 nM and at most 100 nM, respectively.

Take `CCCn1cc(Oc2c(F)cc(COc3cc4n(c(=O)n3)C[C@H]3COCN43)cc2F)cn1` [Example E150, (S)-6-((3,5-difluoro-4-((1-propyl-1H-pyrazol-4-yl)oxy)benzyl)oxy)-10,10a-dihydro-1H-oxazolo[3′,4′:3,4]imidazo[1,2-c]pyrimidin-8(3H)-one]: the IC50 (in experiment [1]; at Lp-PLA2 in human plasma) was at most 100 nM throughout.

As for `O=c1nc(OCc2cccc(F)c2)cc2n1C[C@@H]1CCOCN21` [Example E138, (S)-3-((3-fluorobenzyl)oxy)-8,9,9a,10-tetrahydropyrimido[6′,1′:2,3]imidazo[1,5-c][1,3] oxazin-1(6H)-one], the IC50 in experiment [1] is at most 100 nM; at Lp-PLA2 in human plasma, at most 10000 nM.

As to `CN1c2cc(OCc3ccc(F)cc3F)nc(=O)n2CC12CCCC2` [Example 419, 7′4(2,4-difluorobenzyhoxy)-1-methyl-1H-spiro[cyclopentane-1,2′-imidazo[1,2-c]pyrimidin]-5′(3′H)-one], the IC50 was at most 100 nM in experiment [1] and at most 10000 nM at Lp-PLA2 in human plasma.

On to `O=c1nc(OCc2cc(F)c(Oc3ccnc(C(F)(F)F)c3)c(F)c2)cc2n1C[C@@H]1COCN21` [Example E142, (R)-6-((3,5-difluoro-4-((2-(trifluoromethyl)pyridin-4-yl)oxy)benzyl)oxy)-10,10a-dihydro-1H-oxazolo[3′,4′:3,4]imidazo[1,2-c]pyrimidin-8(3H)-one], for which the IC50 was at most 1 nM in experiment [1] and at most 100 nM at Lp-PLA2 in human plasma.

Consider `CCCCN1CC(Oc2c(F)cc(COc3cc4n(c(=O)n3)CC3CCCN43)cc2F)C1` (stereo not shown) [Example E98, 3-((4-((1-Butylazetidin-3-yl)oxy)-3,5-difluorobenzyl)oxy)-7,8,8a,9-tetrahydropyrrolo[1′,2′:3,4]imidazo[1,2-c]pyrimidin-1(6H)-one], for which the IC50 in experiment [1] is at most 100 nM; on Lp-PLA2 in human plasma, at most 10000 nM.

With `Cn1cc(Oc2c(F)cc(COc3cc4n(c(=O)n3)C[C@H]3COCCN43)cc2F)cn1` [Example E114, (S)-7-((3,5-difluoro-4-((1-methyl-1H-pyrazol-4-yl)oxy)benzyl)oxy)-3,4,11,11a-tetrahydropyrimido[6′,1′:2,3]imidazo[5,1-c][1,4]oxazin-9(1H)-one], the IC50 (in experiment [1]; on Lp-PLA2 in human plasma) was at most 100 nM throughout.
